According to PMC11470957, “Principles of paralog-specific targeted protein degradation engaging the C-degron E3 KLHDC2” (Nature Communications, 2024):
Where “and” joins values, the source holds several entries; their conditions need not be identical. Identical values can stand only once. Like-named read-outs stand apart in the source and are kept apart here.

Molecular target: BRD3 (Homo sapiens, UniProt Q15059)
Test: Western blot of BRD3 levels after cellular dosing

Sequence of BRD3 (Q15059 whole entry): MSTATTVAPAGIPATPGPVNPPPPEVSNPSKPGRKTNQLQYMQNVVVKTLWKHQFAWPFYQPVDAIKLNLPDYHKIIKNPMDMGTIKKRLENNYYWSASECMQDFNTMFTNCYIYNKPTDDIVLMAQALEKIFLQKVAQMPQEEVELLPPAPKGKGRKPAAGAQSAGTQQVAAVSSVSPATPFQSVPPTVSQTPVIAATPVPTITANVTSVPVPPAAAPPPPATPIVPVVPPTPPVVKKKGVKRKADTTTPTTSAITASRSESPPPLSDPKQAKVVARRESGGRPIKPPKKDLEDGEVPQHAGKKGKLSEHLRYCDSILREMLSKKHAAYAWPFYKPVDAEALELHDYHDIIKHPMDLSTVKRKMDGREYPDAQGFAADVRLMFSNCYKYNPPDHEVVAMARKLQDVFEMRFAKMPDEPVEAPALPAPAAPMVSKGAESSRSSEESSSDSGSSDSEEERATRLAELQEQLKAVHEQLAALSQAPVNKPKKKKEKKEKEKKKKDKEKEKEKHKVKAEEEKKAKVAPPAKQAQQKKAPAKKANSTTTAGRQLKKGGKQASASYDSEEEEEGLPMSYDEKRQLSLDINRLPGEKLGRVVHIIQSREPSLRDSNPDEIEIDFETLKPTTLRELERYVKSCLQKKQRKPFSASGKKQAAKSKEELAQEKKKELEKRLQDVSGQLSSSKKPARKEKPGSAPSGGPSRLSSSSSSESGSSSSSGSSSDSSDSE

COC(=O)CNC(=O)Cc1csc(-c2ccc3cccc(OCCN4CCN(C(=O)C[C@@H]5N=C(c6ccc(Cl)cc6)c6c(sc(C)c6C)-n6c(C)nnc65)CC4)c3c2)n1 [SJ46420]
remaining activity at 5 µM (SK-BR-3, 2 h, read-out: BRD3 level relative to DMSO (100%), SKBR3, 5µM, 2hr, Fig S6g): 35 ± 5.2% | remaining activity at 1 µM (SK-BR-3, 2 h, read-out: BRD3 level, Western blot quantification (DMSO = 100), Fig S6g, SKBR3 Time course, 1 uM, 2hr): 54.5% | remaining activity at 5 µM (SK-BR-3, 2 h, read-out: BRD3 level, Western blot quantification (DMSO = 100), Fig S6g, SKBR3 Time course, 5 uM, 2hr): 39.4% | remaining activity at 1 µM (SK-BR-3, 4 h, read-out: BRD3 level relative to DMSO (100%), SKBR3, 1µM, 4hr, Fig S6g): 36 ± 6.9% | remaining activity at 5 µM (SK-BR-3, 4 h, read-out: BRD3 level relative to DMSO (100%), SKBR3, 5µM, 4hr, Fig S6g): 13 ± 2.9% | remaining activity at 5 µM (SK-BR-3, 4 h, read-out: BRD3 level relative to DMSO (100%), SKBR3, 5µM, 4hr, Fig S6j): 31 ± 5.6% | remaining activity at 1 µM (SK-BR-3, 4 h, read-out: BRD3 level, Western blot quantification (DMSO = 100), Fig S6g, SKBR3 Time course, 1 uM, 4hr): 41.9% | remaining activity at 5 µM (SK-BR-3, 4 h, read-out: BRD3 level, Western blot quantification (DMSO = 100), Fig S6g, SKBR3 Time course, 5 uM, 4hr): 15.1% | remaining activity at 1 µM (SK-BR-3, 8 h, read-out: BRD3 level relative to DMSO (100%), SKBR3, 1µM, 8hr, Fig S6g): 32 ± 3.5% | remaining activity at 5 µM (SK-BR-3, 8 h, read-out: BRD3 level relative to DMSO (100%), SKBR3, 5µM, 8hr, Fig S6g): 8.8 ± 2.6% | remaining activity at 1 µM (SK-BR-3, 8 h, read-out: BRD3 level, Western blot quantification (DMSO = 100), Fig S6g, SKBR3 Time course, 1 uM, 8hr): 35% | remaining activity at 5 µM (SK-BR-3, 8 h, read-out: BRD3 level, Western blot quantification (DMSO = 100), Fig S6g, SKBR3 Time course, 5 uM, 8hr): 10.6% | remaining activity at 5 µM (SK-BR-3, read-out: BRD3 level, Western blot quantification (DMSO = 100), Fig S6i, SKBR3, 5uM): 27.2% | potency relative to K2-B4-3e (more potent) (SKBR3 4 h, U2OS 8 h): ~ 3 fold and 2-3 fold | selectivity of BRD3 over BRD4 degradation (SKBR3, 8 hr): ~ 5 fold | selectivity of BRD3 over BRD4 degradation (SKBR3, 24 hr): ~ 1.5 fold | reduction of the levels of BRD3 (SKBR3, within two hours): ~ 70% | BRD3 Dmax (U2OS KO/Rescue, 24 h dose): ~ 100% | selectivity for BRD3 over BRD2 and BRD4 (DC50) (U2OS KO/rescue): ~ 2.5 fold | time of maximal degradation (U2OS cells): 8 h | remaining activity at 5 µM (U2OS, 2 h, read-out: BRD3 level relative to DMSO (100%), U2OS, 5µM, 2hr, Fig S6h): 93 ± 9.8% | remaining activity at 5 µM (U2OS, 2 h, read-out: BRD3 level, Western blot quantification (DMSO = 100), Fig S6h, U2OS Time course, 5uM, 2hr): 91.4% | remaining activity at 5 µM (U2OS, 4 h, read-out: BRD3 level relative to DMSO (100%), U2OS, 5µM, 4hr, Fig S6h): 68 ± 9.8% | remaining activity at 5 µM (U2OS, 4 h, read-out: BRD3 level, Western blot quantification (DMSO = 100), Fig S6h, U2OS Time course, 5uM, 4hr): 71.3% | remaining activity at 5 µM (U2OS, 8 h, read-out: BRD3 level relative to DMSO (100%), U2OS, 5µM, 8hr, Fig S6i): 41 ± 5.4% | remaining activity at 5 µM (U2OS, 8 h, read-out: BRD3 level relative to DMSO (100%), U2OS, 5µM, 8hr, Fig S6h): 28 ± 9.8% | remaining activity at 5 µM (U2OS, 8 h, read-out: BRD3 level, Western blot quantification (DMSO = 100), Fig S6h, U2OS Time course, 5uM, 8hr): 31.8% | remaining activity at 5 µM (U2OS, 24 h, read-out: BRD3 level relative to DMSO (100%), U2OS DC2KO (KLHDC2 knockout), 5µM, 24 h, Fig 6b): 100 ± 6.8% | remaining activity at 0.16 µM (U2OS, 24 h, read-out: BRD3 level relative to DMSO (100%), U2OS KO/Rescue, 0.16µM, 24 h, Fig S6d): 85 ± 13% | remaining activity at 0.31 µM (U2OS, 24 h, read-out: BRD3 level relative to DMSO (100%), U2OS KO/Rescue, 0.31µM, 24 h, Fig S6d): 65 ± 14% | remaining activity at 0.63 µM (U2OS, 24 h, read-out: BRD3 level relative to DMSO (100%), U2OS KO/Rescue, 0.63µM, 24 h, Fig S6d): 39 ± 8.5% | remaining activity at 1 µM (U2OS, 24 h, read-out: BRD3 level relative to DMSO (100%), U2OS KO/Rescue, 1µM + co-dosing 1µM MLN4924, 24 h, Fig 6d): 120 ± 1.5% | remaining activity at 1 µM (U2OS, 24 h, read-out: BRD3 level relative to DMSO (100%), U2OS KO/Rescue, 1µM, 24 h, Fig 6c): 45 ± 3.6% | remaining activity at 1 µM (U2OS, 24 h, read-out: BRD3 level relative to DMSO (100%), U2OS KO/Rescue, 1µM, 24 h, Fig 6d): 25 ± 8.2% | remaining activity at 1.3 µM (U2OS, 24 h, read-out: BRD3 level relative to DMSO (100%), U2OS KO/Rescue, 1.3µM, 24 h, Fig S6d): 12 ± 1.8% | remaining activity at 2.5 µM (U2OS, 24 h, read-out: BRD3 level relative to DMSO (100%), U2OS KO/Rescue, 2.5µM, 24 h, Fig S6d): 0.77 ± 0.16% | remaining activity at 5 µM (U2OS, 24 h, read-out: BRD3 level relative to DMSO (100%), U2OS KO/Rescue, 5µM, 24 h, Fig S6d): 0.34 ± 0.11% | remaining activity at 5 µM (U2OS, 24 h, read-out: BRD3 level relative to DMSO (100%), U2OS, 5µM, 24 h, Fig 6b): 30.9 ± 4.1% | remaining activity at 5 µM (U2OS, 24 h, read-out: BRD3 level relative to DMSO (100%), U2OS, 5µM, 24hr, Fig S6h): 41 ± 9.8% | remaining activity at 5 µM (U2OS, 24 h, read-out: BRD3 level, Western blot quantification (DMSO = 100), Fig S6h, U2OS Time course, 5uM, 24hr): 43.5% | selectivity of BRD3 over BRD4 degradation (U2OS, 24 hr): ~ 1.4 fold | remaining activity at 1.59176 µM (U2OS, read-out: BRD3 (DMSO = 100), U2OS KO/Rescue cells, Log SJ46420 (uM) 1.59176, Rep1, Rep2): 95% | remaining activity at 2.49485 µM (U2OS, read-out: BRD3 (DMSO = 100), U2OS KO/Rescue cells, Log SJ46420 (uM) 2.49485, Rep1, Rep2): 47.6% | remaining activity at 2.79588 µM (U2OS, read-out: BRD3 (DMSO = 100), U2OS KO/Rescue cells, Log SJ46420 (uM) 2.79588, Rep1, Rep2): 11.4% | remaining activity at 3.09691 µM (U2OS, read-out: BRD3 (DMSO = 100), U2OS KO/Rescue cells, Log SJ46420 (uM) 3.09691, Rep1, Rep2): 0.66% | remaining activity at 3.39794 µM (U2OS, read-out: BRD3 (DMSO = 100), U2OS KO/Rescue cells, Log SJ46420 (uM) 3.39794, Rep1, Rep2): 0.34% | remaining activity at 3.69897 µM (U2OS, read-out: BRD3 (DMSO = 100), U2OS KO/Rescue cells, Log SJ46420 (uM) 3.69897, Rep1, Rep2): 0.161% | Dmax (U2OS, read-out: BRD3 Dmax, U2OS KO/Rescue, 24 h dose): 99.9% | remaining activity at 5 µM (U2OS, read-out: BRD3 level, Western blot quantification (DMSO = 100), Fig 6b, U2OS, 5 uM): 33.9% | remaining activity at 5 µM (U2OS, read-out: BRD3 level, Western blot quantification (DMSO = 100), Fig S6i, U2OS, 5uM): 52.9%
